In US20230220021A1, “CYCLIC PEPTIDE INHIBITORS OF PSD-95 AND USES THEREOF” (University of Copenhagen, priority 2020, published 2023):
Where a SMILES comes first, the peptide text is derived from it. [ ]: non-standard residue; d: D form.

target: T1, PSD-95-PDZ2 (Homo sapiens, UniProt P78352); experiment: Fluorescence polarization (FP) competition assay against cyclic nNOS TAMRA probe; type: binding; conditions: FP competition, cyclic nNOS TAMRA probe; mean of triplicates; N.B. = not binding; read-out: Ki
T1 construct: 7xHis (N); made in house; host or cells: Escherichia coli B21 pLys (for the mutants, 'as previously described')
T1 sequence (P78352 160-246 limits assumed): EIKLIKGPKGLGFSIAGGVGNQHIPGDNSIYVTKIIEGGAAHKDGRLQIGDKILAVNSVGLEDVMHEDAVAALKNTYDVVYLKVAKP

| Structure (SMILES) | Ki [nM] |
| --- | --- |
| CC[C@H](C)[C@@H]1NC(=O)[C@H]([C@@H](C)O)NC(=O)[C@H](CCCCN)NC(=O)[C@@H]2CCCN2C(=O)[C@H]([C@@H](C)O)NC(=O)CNC(=O)[C@H](CCCNC(=N)N)NC(=O)CNC(=O)[C@H]([C@@H](C)O)NC(=O)[C@H](Cc2ccccc2)NC(=O)[C@H]([C@@H](C)O)NC(=O)[C@H]([C@@H](C)O)NC(=O)[C@H](CCC(=O)O)NC(=O)[C@H](CC(C)C)NC(=O)[C@H](Cc2c[nH]cn2)NC(=O)[C@H]([C@@H](C)O)NC(=O)[C@H](CCC(N)=O)NC(=O)CNC(=O)[C@H]2CCCN2C(=O)[C@H](CCC(N)=O)NC(=O)[C@H]([C@@H](C)O)NC(=O)[C@H](C(C)C)NC(=O)[C@H](CCCNC(=N)N)NC1=O [compound 34] (cyclo(THLETTFTGRGTPKTIRVTQ[dP]GQ)) | 990 |

same assay, conditions: FP inhibition constant normalized to WT value

| Structure (SMILES) | Relative Ki (Ki mut/Ki WT) |
| --- | --- |
| CC[C@H](C)[C@@H]1NC(=O)[C@H]([C@@H](C)O)NC(=O)[C@H](CCCCN)NC(=O)[C@@H]2CCCN2C(=O)[C@H]([C@@H](C)O)NC(=O)CNC(=O)[C@H](CC(=O)O)NC(=O)CNC(=O)[C@H]([C@@H](C)O)NC(=O)[C@H](Cc2ccccc2)NC(=O)[C@H]([C@@H](C)O)NC(=O)[C@H]([C@@H](C)O)NC(=O)[C@H](CCC(=O)O)NC(=O)[C@H](CC(C)C)NC(=O)[C@H](Cc2ccccc2)NC(=O)[C@H]([C@@H](C)O)NC(=O)[C@H](CCC(N)=O)NC(=O)CNC(=O)[C@H]2CCCN2C(=O)[C@H](CCC(N)=O)NC(=O)[C@H]([C@@H](C)O)NC(=O)[C@H](C(C)C)NC(=O)[C@H](CCCNC(=N)N)NC1=O [compound 27] (cyclo(TFLETTFTGDGTPKTIRVTQ[dP]GQ)) | 0.79 |
| CC[C@H](C)[C@@H]1NC(=O)[C@H]([C@@H](C)O)NC(=O)[C@H](CCCCN)NC(=O)[C@@H]2CCCN2C(=O)[C@H]([C@@H](C)O)NC(=O)CNC(=O)[C@H](CCCCN)NC(=O)CNC(=O)[C@H]([C@@H](C)O)NC(=O)[C@H](Cc2ccccc2)NC(=O)[C@H]([C@@H](C)O)NC(=O)[C@H]([C@@H](C)O)NC(=O)[C@H](CCC(=O)O)NC(=O)[C@H](CC(C)C)NC(=O)[C@H](Cc2c[nH]cn2)NC(=O)[C@H]([C@@H](C)O)NC(=O)[C@H](CCC(N)=O)NC(=O)CNC(=O)[C@H]2CCCN2C(=O)[C@H](CCC(N)=O)NC(=O)[C@H]([C@@H](C)O)NC(=O)[C@H](C(C)C)NC(=O)[C@H](CCCNC(=N)N)NC1=O [compound 28] (cyclo(THLETTFTGKGTPKTIRVTQ[dP]GQ)) | 1.91 |
| CC[C@H](C)[C@@H]1NC(=O)[C@H]([C@@H](C)O)NC(=O)[C@H](CCCCN)NC(=O)[C@@H]2CCCN2C(=O)[C@H]([C@@H](C)O)NC(=O)CNC(=O)[C@@H]2CCCN2C(=O)CNC(=O)[C@H]([C@@H](C)O)NC(=O)[C@H](Cc2ccccc2)NC(=O)[C@H]([C@@H](C)O)NC(=O)[C@H]([C@@H](C)O)NC(=O)[C@H](CCC(=O)O)NC(=O)[C@H](CC(C)C)NC(=O)[C@H](Cc2c[nH]cn2)NC(=O)[C@H]([C@@H](C)O)NC(=O)[C@H](CCC(N)=O)NC(=O)CNC(=O)[C@H]2CCCN2C(=O)[C@H](CCC(N)=O)NC(=O)[C@H]([C@@H](C)O)NC(=O)[C@H](C(C)C)NC(=O)[C@H](CCCNC(=N)N)NC1=O [compound 29] (cyclo(THLETTFTGPGTPKTIRVTQ[dP]GQ)) | 1.60 |
| CC[C@H](C)[C@@H]1NC(=O)[C@H]([C@@H](C)O)NC(=O)[C@H](CCCCN)NC(=O)[C@@H]2CCCN2C(=O)[C@@H]2CCCN2C(=O)CNC(=O)[C@H](CC(=O)O)NC(=O)CNC(=O)[C@H]([C@@H](C)O)NC(=O)[C@H](Cc2ccccc2)NC(=O)[C@H]([C@@H](C)O)NC(=O)[C@H]([C@@H](C)O)NC(=O)[C@H](CCC(=O)O)NC(=O)[C@H](CC(C)C)NC(=O)[C@H](Cc2c[nH]cn2)NC(=O)[C@H]([C@@H](C)O)NC(=O)[C@H](CCC(N)=O)NC(=O)CNC(=O)[C@H]2CCCN2C(=O)[C@H](CCC(N)=O)NC(=O)[C@H]([C@@H](C)O)NC(=O)[C@H](C(C)C)NC(=O)[C@H](CCCNC(=N)N)NC1=O [compound 31] (cyclo(THLETTFTGDGPPKTIRVTQ[dP]GQ)) | 0.77 |
| CC[C@H](C)[C@@H]1NC(=O)[C@H]([C@@H](C)O)NC(=O)[C@H](CCCCN)NC(=O)[C@@H]2CCCN2C(=O)[C@H]([C@@H](C)O)NC(=O)CNC(=O)[C@H](CCCNC(=N)N)NC(=O)CNC(=O)[C@H]([C@@H](C)O)NC(=O)[C@H](Cc2ccccc2)NC(=O)[C@H]([C@@H](C)O)NC(=O)[C@H]([C@@H](C)O)NC(=O)[C@H](CCC(=O)O)NC(=O)[C@H](CC(C)C)NC(=O)[C@H](Cc2c[nH]cn2)NC(=O)[C@H]([C@@H](C)O)NC(=O)[C@H](CCC(N)=O)NC(=O)CNC(=O)[C@H]2CCCN2C(=O)[C@H](CCC(N)=O)NC(=O)[C@H]([C@@H](C)O)NC(=O)[C@H](C(C)C)NC(=O)[C@H](CCCNC(=N)N)NC1=O [compound 34] (cyclo(THLETTFTGRGTPKTIRVTQ[dP]GQ)) | 0.66 |
| CC[C@H](C)[C@@H]1NC(=O)[C@H]([C@@H](C)O)NC(=O)[C@H](CCCCN)NC(=O)[C@@H]2CCCN2C(=O)[C@H]([C@@H](C)O)NC(=O)[C@H](CCCNC(=N)N)NC(=O)[C@H](CC(=O)O)NC(=O)CNC(=O)[C@H]([C@@H](C)O)NC(=O)[C@H](Cc2ccccc2)NC(=O)[C@H]([C@@H](C)O)NC(=O)[C@H]([C@@H](C)O)NC(=O)[C@H](CCC(=O)O)NC(=O)[C@H](CC(C)C)NC(=O)[C@H](Cc2c[nH]cn2)NC(=O)[C@H]([C@@H](C)O)NC(=O)[C@H](CCC(N)=O)NC(=O)CNC(=O)[C@H]2CCCN2C(=O)[C@H](CCC(N)=O)NC(=O)[C@H]([C@@H](C)O)NC(=O)[C@H](C(C)C)NC(=O)[C@H](CCCNC(=N)N)NC1=O [compound 35] (cyclo(THLETTFTGDRTPKTIRVTQ[dP]GQ)) | 0.50 |
| CC[C@H](C)[C@@H]1NC(=O)[C@H]([C@@H](C)O)NC(=O)[C@H](CCCCN)NC(=O)[C@@H]2CCCN2C(=O)[C@H](Cc2c[nH]c3ccccc23)NC(=O)CNC(=O)[C@H](CC(=O)O)NC(=O)CNC(=O)[C@H]([C@@H](C)O)NC(=O)[C@H](Cc2ccccc2)NC(=O)[C@H]([C@@H](C)O)NC(=O)[C@H]([C@@H](C)O)NC(=O)[C@H](CCC(=O)O)NC(=O)[C@H](CC(C)C)NC(=O)[C@H](Cc2c[nH]cn2)NC(=O)[C@H]([C@@H](C)O)NC(=O)[C@H](CCC(N)=O)NC(=O)CNC(=O)[C@H]2CCCN2C(=O)[C@H](CCC(N)=O)NC(=O)[C@H]([C@@H](C)O)NC(=O)[C@H](C(C)C)NC(=O)[C@H](CCCNC(=N)N)NC1=O [compound 36] (cyclo(THLETTFTGDGWPKTIRVTQ[dP]GQ)) | 0.69 |
| CC[C@H](C)[C@@H]1NC(=O)[C@H]([C@@H](C)O)NC(=O)[C@H](CCCCN)NC(=O)[C@@H]2CCCN2C(=O)[C@H](CS)NC(=O)CNC(=O)[C@H](CC(=O)O)NC(=O)CNC(=O)[C@H]([C@@H](C)O)NC(=O)[C@H](Cc2ccccc2)NC(=O)[C@H]([C@@H](C)O)NC(=O)[C@H]([C@@H](C)O)NC(=O)[C@H](CCC(=O)O)NC(=O)[C@H](CC(C)C)NC(=O)[C@H](Cc2c[nH]cn2)NC(=O)[C@H]([C@@H](C)O)NC(=O)[C@H](CCC(N)=O)NC(=O)CNC(=O)[C@H]2CCCN2C(=O)[C@H](CCC(N)=O)NC(=O)[C@H]([C@@H](C)O)NC(=O)[C@H](C(C)C)NC(=O)[C@H](CCCNC(=N)N)NC1=O [compound 38] (cyclo(THLETTFTGDGCPKTIRVTQ[dP]GQ)) | 0.91 |
| CC[C@H](C)[C@@H]1NC(=O)[C@H](CC(N)=O)NC(=O)[C@H](CCCCN)NC(=O)[C@@H]2CCCN2C(=O)[C@H]([C@@H](C)O)NC(=O)CNC(=O)[C@H](CC(=O)O)NC(=O)CNC(=O)[C@H]([C@@H](C)O)NC(=O)[C@H](Cc2ccccc2)NC(=O)[C@H]([C@@H](C)O)NC(=O)[C@H]([C@@H](C)O)NC(=O)[C@H](CCC(=O)O)NC(=O)[C@H](CC(C)C)NC(=O)[C@H](Cc2c[nH]cn2)NC(=O)[C@H]([C@@H](C)O)NC(=O)[C@H](CCC(N)=O)NC(=O)CNC(=O)[C@H]2CCCN2C(=O)[C@H](CCC(N)=O)NC(=O)[C@H]([C@@H](C)O)NC(=O)[C@H](C(C)C)NC(=O)[C@H](CCCNC(=N)N)NC1=O [compound 39] (cyclo(THLETTFTGDGTPKNIRVTQ[dP]GQ)) | 12.59 |
